Like-named read-outs stand apart in the source and are kept apart here.

Series [1] concerns Lingnan yellow-feathered, fast-growing, and large-sized broilers. To be noted: for Average feed consumption / Average weight gain / Feed-to-meat ratio / Survival rate (%) / Relative weight gain rate (%): broilers aged 1 to 21 days; for Relative weight gain rate (%): relative to control group; for Physical characteristics of the experimental chickens: experimental groups of compounds 1-7; for Feed conversion decreased by / Relative weight gain rate increased by: versus control. An excerpt: (§1) Experimental animals: 900 one-day-old Lingnan yellow-feathered, fast-growing, and large-sized broilers; 150 weaned piglets;
(§2) Feeds: basal feed for chickens and basal feed for pigs that contain no antimicrobial drugs, copper sources and growth promoters;
(§3) Experimental samples: compound 1, compound 2, compound 3, compound 4, compound 5, compound 6, compound 7,
900 one-day-old Lingnan yellow-feathered, fast-growing, and large-sized broilers were randomly divided into 18 groups (50 broilers/group). […] The broilers had free access to food. The weight gain and feed conversion of the experimental chickens (aged from 1 to 21 days) in each experimental group were recorded.

The test system of another series is weaned piglets. Particulars: for Average weight gain / Feed-to-meat ratio / Survival rate (%) / Total feed consumption / Total weight gain / Relative weight gain rate (%): weaned piglets, 30 days; for Total feed consumption / Total weight gain: 10 pigs; for Relative weight gain rate (%): control group = 100.
Source text: as §1, §2, §3
150 weaned piglets were grouped according to Table 2 (10 piglets/group). […] The piglets had free access to food. The weight gain and feed conversion of the experimental pigs in each experimental group were recorded within 30 days after […] weaning.

In series [2] the test system is black carp (subyearlings). Description: Use of aspartic acid copper complex in aquaculture feeds (black carp breeding experiment). The class given is in vivo. To be noted: 30 mg/kg in feed (as copper ions), 8 weeks. The protocol:
Experimental fishes: The experimental fishes used were black carp (subyearlings), which were provided by the Dafeng fish nursery (Huizhou city, Guangdong province). Healthy and active fingerling black carps (uniform in size) were fed for 4 weeks in a big net cage (4×2×1.5 m^3) and then the formal breeding experiment was carried out. The experimental systems were small floating net cages (1.1×1.1×1.1 m^3 in size). Each small net cage was provided with an air-filling head, which allowed for continuous inflation of the cages for 24 h a day. The small net cages and the acclimatization net cage were all placed in a 3500 m^2 pond in the experimental field. […] During the trial, 480 black carps (fasted for 1 d) were randomly divided into 10 groups, with 4 replicates for each group and 12 fishes in each replicate. After weighing as a whole, the black carps were randomly placed into […] and fed with different experimental feeds.
Experimental feeds: The experimental feeds were formulated following the formula in Table 5. According to Table 6, different copper element supplements (calculated based on the copper ions) were added to the feeds in different experimental groups, respectively. The feed raw materials were subjected to ultrafine grinding and then granulated into floating expanded feeds (3 mm) using an expansion machine from Jiangsu Muyang Corporation. The demolding temperature was 130° C. 3% soybean oil was externally sprayed using an oil spraying device. The finished product was sealed and stored in a cool place for later use.
Experimental management: During the trial, the carps were manually fed in a restricted dose. The feeding dose was adjusted once a week, and the doses for all groups (based on the initial body weight) were completely consistent. The carps were fed twice a day (at 7:30 and 15:00). The experiment lasted for 8 weeks. During the trial, the water quality was regularly monitored, and throughout the breeding, the water temperature was kept at 26.88±3.08° C., DO>5.0 mg O L^−1, pH 7.8, ammonia nitrogen<0.50 mg NL^−1, and nitrite-nitrogen<0.05 mg N L^−1.
Parametric statistics: During the trial, the carps in each net cage were weighed as a whole one day after discontinuation of feeding, and the average weight gain (g) and feed-to-meat ratio were calculated. The calculation formulas are as follows:
Average weight gain (g)=Average final weight−Average initial weight; Feed-to-meat ratio=Food intake/Weight gain of fishes;

Setting [3] is: 50 mg/kg in feed (as copper ion).
[4] abbreviates: L-aspartic acid 105 mg/kg in feed, no copper source.
[5] abbreviates: L-aspartic acid group (105 mg/kg).
[6] abbreviates: L-aspartic acid 104 mg/kg in feed, no copper source.

For `NC(CC(=O)[O-])C(=O)[O-].O.O.[Cu+2]` (racemic) [Compound 7, [(Cu(II))(DL-Asp)(H2O)2]·(H2O)0.16], in series [1] (setting [3]), the “Average feed consumption” value was 921 g, the “Average weight gain” value worked out at 515 g, the Feed-to-meat ratio is 1.789 and the “Survival rate (%)” value stood at 100%. Moreover, in series [1] (setting [3]), the “Relative weight gain rate (%)” value was determined as 108.6%. The “Physical characteristics of the experimental chickens” value (shortened to “Physical characteristics”) in series [1] is “normal physical characteristics”. Moreover, in the series with weaned piglets (setting [3]), the “Average weight gain” value is recorded as 12.16 kg, the Feed-to-meat ratio worked out at 2.198, the “Survival rate (%)” value stood at 100% and the “Total feed consumption” value is listed as 267.33 kg. For the same molecule, in the series with weaned piglets (setting [3]), the “Total weight gain” value is on record as 121.6 kg and the “Relative weight gain rate (%)” value was found to be 111.6%. In series [2], the “Average weight gain” value is recorded as 350 g and the Feed-to-meat ratio worked out at 1.429.

Turning to `N[C@@H](CC(=O)[O-])C(=O)[O-].[Cu+2]` [Compound 4, [(Cu(II))(L-Asp)]], in series [1] (50 mg/kg (as copper ion)), the “Feed conversion decreased by” value is 3.23% and the “Relative weight gain rate increased by” value is 7.2%. For the same molecule, in series [1] (setting [3]), the “Average feed consumption” value is 924 g, the “Average weight gain” value came to 508 g, the Feed-to-meat ratio amounted to 1.819 and the “Survival rate (%)” value was found to be 100%. Also, the “Relative weight gain rate (%)” value in series [1] (setting [3]) was found to be 107.2%. Also, the “Physical characteristics” value in series [1] is recorded as “normal physical characteristics”. In addition, in the series with weaned piglets (setting [3]), the “Average weight gain” value was 11.67 kg, the Feed-to-meat ratio came out at 2.208, the “Survival rate (%)” value came to 100% and the “Total feed consumption” value came out at 257.63 kg. For the same molecule, in the series on weaned piglets (setting [3]), the “Total weight gain” value was determined as 116.7 kg and the “Relative weight gain rate (%)” value worked out at 107.06%. Also, in series [2], the “Average weight gain” value is reported as 344 g and the Feed-to-meat ratio is reported as 1.453.

Consider `N[C@@H](CC(=O)[O-])C(=O)[O-].O.O.[Cu+2]` [Compound 3, [(Cu(II))(L-Asp)(H2O)2]·(H2O)0.62], for which, in series [1] (setting [3]), the “Average feed consumption” value is reported as 919 g, the “Average weight gain” value is given as 514 g, the Feed-to-meat ratio amounted to 1.788 and the “Survival rate (%)” value came to 100%. Besides, the “Relative weight gain rate (%)” value in series [1] (setting [3]) is 108.4%. Further, in series [1], the “Physical characteristics” value is “normal physical characteristics”. In the series with weaned piglets (setting [3]), the “Average weight gain” value is reported as 11.92 kg, the Feed-to-meat ratio worked out at 2.114, the “Survival rate (%)” value stood at 100% and the “Total feed consumption” value was 251.97 kg. In the series with weaned piglets (setting [3]), the “Total weight gain” value is given as 119.2 kg and the “Relative weight gain rate (%)” value is listed as 109.4%. For the same molecule, the “Improvement in the feed conversion of the experimental pigs compared with compound 4” value with weaned piglets (used at the same doses (50 mg/kg)) is “about 2 fold”. Further, in series [2], the “Average weight gain” value is 361 g and the Feed-to-meat ratio is 1.385.

`N[C@@H](CC(=O)[O-])C(=O)[O-].[Cu+2]` (racemic) [Compound 6, [(Cu(II))(DL-Asp)]]: in series [1] (setting [3]), the “Average feed consumption” value is listed as 912 g, the “Average weight gain” value turned out to be 510 g, the Feed-to-meat ratio amounted to 1.789 and the “Survival rate (%)” value worked out at 100%. In addition, the “Relative weight gain rate (%)” value in series [1] (setting [3]) was determined as 107.6%. Also, the “Physical characteristics” value in series [1] is on record as “normal physical characteristics”. In addition, in the series with weaned piglets (setting [3]), the “Average weight gain” value amounted to 12.08 kg, the Feed-to-meat ratio came out at 2.173, the “Survival rate (%)” value is recorded as 100% and the “Total feed consumption” value is listed as 262.46 kg. Moreover, in the series on weaned piglets (setting [3]), the “Total weight gain” value is listed as 120.8 kg and the “Relative weight gain rate (%)” value is recorded as 110.8%. In series [2], the “Average weight gain” value turned out to be 353 g and the Feed-to-meat ratio is reported as 1.416.

As to `N[C@@H](CC(=O)O)C(=O)O` [L-aspartic acid, reference compound], in series [1] (setting [4]), the “Average feed consumption” value stood at 899 g, the “Average weight gain” value is listed as 480 g, the Feed-to-meat ratio stood at 1.873 and the “Survival rate (%)” value stood at 100%. For the same molecule, the “Relative weight gain rate (%)” value in series [1] (setting [4]) is on record as 101.3%. Besides, in series [1] (setting [5]), the “Feed conversion decreased by” value was determined as 0.32% and the “Relative weight gain rate increased by” value came to 4.2%. Also, in the series on weaned piglets (setting [6]), the “Average weight gain” value is 11.04 kg, the Feed-to-meat ratio was found to be 2.285, the “Survival rate (%)” value came to 100% and the “Total feed consumption” value was 252.27 kg. Also, in the series on weaned piglets (setting [6]), the “Total weight gain” value turned out to be 110.4 kg and the “Relative weight gain rate (%)” value stood at 101.28%.

As to `NC(CC(=O)[CH2][Cu][O]C(=O)CC(N)C(=O)O)C(=O)O` (centres unmarked) [Compound 8, reference compound], the “Survival rate (%)” value (in series [1] (setting [3]); with weaned piglets (setting [3])) was 100% throughout. In the series on weaned piglets (50 mg/kg, versus control group), the “Production performance of the experimental pigs” value was “substantially close to that achieved in the control group”.

In the case of `NC(CC(=O)[O-])C(=O)[O-].O.O.[Cu+2]` (racemic) [Compound 5, [(Cu(II))(DL-Asp)(H2O)2]], in series [1] (setting [3]), the “Average feed consumption” value is reported as 917 g, the “Average weight gain” value was found to be 503 g, the Feed-to-meat ratio is on record as 1.824 and the “Survival rate (%)” value is listed as 100%. Besides, the “Relative weight gain rate (%)” value in series [1] (setting [3]) came out at 106.1%. The “Physical characteristics” value in series [1] is “normal physical characteristics”. Further, in the series on weaned piglets (setting [3]), the “Average weight gain” value turned out to be 11.83 kg, the Feed-to-meat ratio came out at 2.184, the “Survival rate (%)” value stood at 100% and the “Total feed consumption” value amounted to 258.35 kg. Besides, in the series on weaned piglets (setting [3]), the “Total weight gain” value worked out at 118.3 kg and the “Relative weight gain rate (%)” value is 108.5%. In series [2], the “Average weight gain” value was found to be 349 g and the Feed-to-meat ratio amounted to 1.433.

Source of the values: US20240366553A1, “ASPARTIC ACID COPPER COMPLEX, AND USE THEREOF” (GUANGZHOU INSIGHTER BIOTECHNOLOGY CO., LTD., priority 2021, published 2024).
